# Data reported in article PMC9668969 (Nature Communications, 2022).
# Where “and” joins values, the source holds several entries; their conditions need not be identical. Equal entries are not always repeated.
# Assays:
# Test in all cases: Giant liposome excised patch-clamp recordings (2:1:1 POPC:POPE:POPG)
# Assay type in all cases: biochemical, Erwinia chrysanthemi
# [1] = system: WT ELIC
# Experimental: (§1) Giant liposome formation and excised patch-clamp recordings of ELIC were performed as previously described[12],[13]. 0.5 mg of WT ELIC, ELIC3 or ELIC5 were reconstituted in 5 mg of 2:1:1 POPC:POPE:POPG liposomes, using DDM destabilization and biobeads. 10 mM MOPS pH 7 and 150 mM NaCl (MOPS buffer) was used throughout. Proteoliposomes were pelleted and resuspended in ~80 µl, and frozen in 10 µl aliquots. Giant liposomes were formed by dehydrating 10 µl of proteoliposomes on a glass coverslip in a vacuum desiccator for ~20 min followed by rehydration with 100 µl of MOPS buffer overnight at 4 °C and 2 hr at RT the following day. The giant liposomes were resuspended by pipetting and applied to a recording chamber. The liposomes were allowed to settle for 15 min, after which free liposomes and debris were removed by exchanging the bath solution. Bath and pipette solutions contained MOPS buffer and 0.5 mM BaCl2 (Sigma). […] Rapid application or washout of agonist were performed using a three-barreled flowpipe mounted to and controlled by a SF-77B fast perfusion system (Warner Instrument Corporation). […] Deactivation time courses were fit with a single exponential while the time course of desensitization was fit with a double exponential. Weighted time constants were calculated using Eq. 1:1 Weighted Tau=A1×τ1+(A2×τ2)/A1+A2 where A1 and A2 are the amplitudes of the first and second exponential components. The data were collected and analyzed using pClamp10.4 software.
# [2] = molecular target: T1, ELIC5 (P254G/C300S/V261Y/G319F/I320F) (Dickeya chrysanthemi, UniProt P0C7B7, C299S/G318F/I319F/P253G/V260Y)
# T1 construct: host or cells: OverExpress C43 (DE3) E. coli
# T1 sequence (P0C7B7 whole entry P253G/V260Y/C299S/G318F/I319F): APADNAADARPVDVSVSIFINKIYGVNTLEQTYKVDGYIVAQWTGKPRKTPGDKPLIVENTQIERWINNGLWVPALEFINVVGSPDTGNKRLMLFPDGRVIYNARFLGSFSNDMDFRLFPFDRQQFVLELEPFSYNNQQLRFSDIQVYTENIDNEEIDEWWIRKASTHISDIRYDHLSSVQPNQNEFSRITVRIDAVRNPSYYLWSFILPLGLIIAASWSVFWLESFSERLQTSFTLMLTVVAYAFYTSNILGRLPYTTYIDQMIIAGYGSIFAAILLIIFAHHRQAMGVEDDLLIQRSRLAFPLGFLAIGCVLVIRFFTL
# Experimental: as §1
# [3] = molecular target: T2, ELIC3 (V261Y/G319F/I320F) (Dickeya chrysanthemi, UniProt P0C7B7, G318F/I319F/V260Y)
# T2 construct: host or cells: OverExpress C43 (DE3) E. coli
# T2 sequence (P0C7B7 whole entry V260Y/G318F/I319F): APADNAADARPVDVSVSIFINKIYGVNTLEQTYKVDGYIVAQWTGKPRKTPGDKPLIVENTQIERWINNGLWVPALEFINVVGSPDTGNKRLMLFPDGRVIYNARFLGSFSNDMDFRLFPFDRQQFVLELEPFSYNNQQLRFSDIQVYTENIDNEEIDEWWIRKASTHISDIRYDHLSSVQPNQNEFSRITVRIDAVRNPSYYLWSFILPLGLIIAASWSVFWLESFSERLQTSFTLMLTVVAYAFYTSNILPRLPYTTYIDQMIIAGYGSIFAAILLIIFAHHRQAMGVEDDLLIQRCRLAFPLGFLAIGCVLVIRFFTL
# Experimental: as §1
# [4] = 2:1:1 giant liposomes, 0.5 mM BaCl2, Hill n set to 2, read-out: EC50 of peak current dose response
compound,measurement,setting,value
NCCS [cysteamine],Peak response (normalized),[1]; 0.3 mM cysteamine,0.003114
same,Peak response (normalized),[1]; 1 mM cysteamine,0.01807
same,Peak response (normalized),[1]; 3 mM cysteamine,0.2085
same,"Relative current at 60s, Average",[1]; 10 mM Cys,0.05101
same,"Time constant of deactivation, Deactivation Tau",[1]; 10 mM Cys,0.1636 s
same,"Time constant of desensitizaton, Weighted Tau",[1]; 10 mM Cys,4.764 s
same,Peak response (normalized),[1]; 10 mM cysteamine,0.7416
same,"Relative current at 60s, Average",[1]; 30 mM Cys,0.03561
same,"Time constant of deactivation, Deactivation Tau",[1]; 30 mM Cys,0.4008 s
same,"Time constant of desensitizaton, Weighted Tau",[1]; 30 mM Cys,2.506 s
same,Peak response (normalized),[1]; 30 mM cysteamine,1
same,EC50,[1]; [4],5.2 mM and 4 to 5 mM
same,Relative current at 60s,[2]; 10 mM Cys,No evidence of desensitization
same,"Time constant of deactivation, Deactivation Tau",[2]; 10 mM Cys,195.719 s
same,Time constant of desensitizaton,[2]; 10 mM Cys,No evidence of desensitization
same,"deactivation rate, fold slower than WT",[2]; after removal of 10 mM cysteamine,~ 1000 ×
same,desensitization,[2]; in the presence of 10 mM cysteamine,no evidence of desensitization
same,Peak response (normalized),[3]; 0.3 mM cysteamine,0.02035
same,Peak response (normalized),[3]; 1 mM cysteamine,0.4462
same,Peak response (normalized),[3]; 3 mM cysteamine,0.7955
same,"Relative current at 60s, Average",[3]; 10 mM Cys,0.1185
same,"Time constant of deactivation, Deactivation Tau",[3]; 10 mM Cys,1.081 s
same,"Time constant of desensitizaton, Weighted Tau",[3]; 10 mM Cys,12.8369 s
same,Peak response (normalized),[3]; 10 mM cysteamine,1.022
same,"Relative current at 60s, Average",[3]; 30 mM Cys,0.08245
same,"Time constant of deactivation, Deactivation Tau",[3]; 30 mM Cys,1.658 s
same,"Time constant of desensitizaton, Weighted Tau",[3]; 30 mM Cys,8.1999 s
same,Peak response (normalized),[3]; 30 mM cysteamine,1
same,EC50,[3]; [4],1.2 ± 0.2 mM
